Measurements reported in PMC3410962 (2012).

Target: prostate-specific membrane antigen (PSMA) (Homo sapiens, UniProt Q04609)
Assay: HPLC-based inhibition assay of purified PSMA with PABGγG substrate
Format: biochemical

prostate-specific membrane antigen (PSMA), sequence (Q04609 whole entry): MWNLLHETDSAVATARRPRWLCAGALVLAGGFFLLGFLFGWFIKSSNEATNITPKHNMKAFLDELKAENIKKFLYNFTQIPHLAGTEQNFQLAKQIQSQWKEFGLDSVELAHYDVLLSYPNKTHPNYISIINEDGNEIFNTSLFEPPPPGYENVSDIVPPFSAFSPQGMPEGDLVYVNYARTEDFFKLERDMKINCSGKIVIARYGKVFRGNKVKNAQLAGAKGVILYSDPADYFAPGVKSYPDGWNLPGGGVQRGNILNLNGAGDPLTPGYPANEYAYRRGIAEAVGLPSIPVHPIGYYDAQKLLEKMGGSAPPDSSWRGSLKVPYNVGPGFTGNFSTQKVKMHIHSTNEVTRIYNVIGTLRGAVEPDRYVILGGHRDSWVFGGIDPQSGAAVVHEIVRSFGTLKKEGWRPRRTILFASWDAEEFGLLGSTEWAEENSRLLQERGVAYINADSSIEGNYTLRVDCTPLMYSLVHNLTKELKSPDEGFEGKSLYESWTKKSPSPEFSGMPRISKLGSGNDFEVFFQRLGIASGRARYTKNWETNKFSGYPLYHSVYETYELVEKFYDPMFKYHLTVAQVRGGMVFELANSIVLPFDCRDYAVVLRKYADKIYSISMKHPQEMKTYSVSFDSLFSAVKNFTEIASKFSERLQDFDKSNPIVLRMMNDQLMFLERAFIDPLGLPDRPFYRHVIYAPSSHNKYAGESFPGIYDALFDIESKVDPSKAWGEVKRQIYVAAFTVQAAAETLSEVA

biotin-PEG12-CTT-54 gave an IC50 of 10 nM.
